According to BindingDB's records for doi:10.7270/Q25B012X (Burnham Center For Chemical Genomics, 2012):

Each molecule was assayed against Protein Wnt-3a (Mus musculus, UniProt P27467).
Chain of Protein Wnt-3a (P27467 whole entry): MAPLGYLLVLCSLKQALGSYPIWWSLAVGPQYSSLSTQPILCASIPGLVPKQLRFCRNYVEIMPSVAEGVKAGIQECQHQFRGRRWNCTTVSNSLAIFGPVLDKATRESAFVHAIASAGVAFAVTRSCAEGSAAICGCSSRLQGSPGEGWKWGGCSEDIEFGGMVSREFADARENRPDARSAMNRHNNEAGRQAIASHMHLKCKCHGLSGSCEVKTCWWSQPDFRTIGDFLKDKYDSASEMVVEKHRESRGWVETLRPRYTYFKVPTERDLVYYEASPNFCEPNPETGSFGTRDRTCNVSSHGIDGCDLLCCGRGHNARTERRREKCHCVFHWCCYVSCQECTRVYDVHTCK
With CC(C)(C)c1ccc(C(=O)NC(=S)Nc2ccc(N3CCOCC3)cc2)cc1 the IC50 was > 50 µM. For O=C(NC1CCCC1)c1cc(COc2ccc3ncccc3c2)on1, the IC50 was > 50 µM. In the case of CCN1C(=O)CCN(C2CCCC2)c2nc(Nc3ccc(C(=O)NC4CCN(C)CC4)cc3OC)ncc21, the IC50 is reported as > 50 µM. For Cc1ccc(-c2csc(NC(=O)c3c(C)noc3C)n2)s1, the IC50 was > 50 µM. With COc1cccc2nc3c(C(=O)NCCN(C)C)cccc3cc12 the IC50 was > 50 µM. Molecule C=CCN1C(=O)C(=NNC(=S)Nc2cccc(C)c2)c2ccccc21 [1-(3-methylphenyl)-3-[(Z)-(2-oxidanylidene-1-prop-2-enyl-indol-3-ylidene)amino]thiourea] has an IC50 of 29.2 µM. With Cc1cccc(C)c1N=C(S)N(CCN1CCCCCC1)Cc1ccco1 [1-[2-(1-azepanyl)ethyl]-3-(2,6-dimethylphenyl)-1-(2-furanylmethyl)thiourea] the IC50 was > 50 µM. In the case of O=C(C[n+]1cc(-c2ccccc2)n2c1CCCCC2)c1ccc(Cl)cc1 [1-[2-(4-Chloro-phenyl)-2-oxo-ethyl]-3-phenyl-6,7,8,9-tetrahydro-5H-imidazo[1,2-a]azepin-1-ium], the IC50 is reported as > 50 µM. CC(=O)N1c2ccc(S(=O)(=O)N3CCC(C(=O)N4CCCCC4)CC3)cc2CC1C (configuration not stated) [1-[2-methyl-5-(4-piperidin-1-ylcarbonylpiperidin-1-yl)sulfonyl-2,3-dihydroindol-1-yl]ethanone] was tested, and the IC50 was > 50 µM. Brc1ccc(-c2csc(N3CCCCCC3)n2)cc1 [1-[4-(4-bromophenyl)-1,3-thiazol-2-yl]azepane] was tested, and the IC50 was > 12.5 µM. For CCCCn1c(SCc2c(C)noc2C)nc2cc(S(N)(=O)=O)ccc21 [1-butyl-2-[(3,5-dimethyl-1,2-oxazol-4-yl)methylsulfanyl]benzimidazole-5-sulfonamide], the IC50 was > 50 µM. Cc1ccc(O)c(NC(=O)COc2cc(C)ccc2C)c1 [2-(2,5-dimethylphenoxy)-N-(2-hydroxy-5-methylphenyl)acetamide] was tested, and the IC50 was > 50 µM. With Cc1ccc(C2=C(CC(=O)O)C(=O)CC2)cc1 [2-[2-(4-methylphenyl)-5-oxidanylidene-cyclopenten-1-yl]ethanoic acid] the IC50 was > 50 µM. COc1ccc(-c2c[n+](CC(=O)c3ccccc3)c3n2CCCCC3)cc1 [2-[3-(4-methoxyphenyl)-6,7,8,9-tetrahydro-5H-imidazo[1,2-a]azepin-1-ium-1-yl]-1-phenyl-ethanone;bromide] was tested, and the IC50 was > 50 µM. For COc1cc(C(=O)NC2CCN(C)CC2)ccc1Nc1ncc2c(n1)N(Cc1ccccc1)CCC(=O)N2C [3-methoxy-4-[[5-methyl-6-oxo-9-(phenylmethyl)-7,8-dihydropyrimido[4,5-b][1,4]diazepin-2-yl]amino]-N-(1-methyl-4-piperidinyl)benzamide], the IC50 was > 50 µM. In the case of CC(C)(C)OC(=O)N1CCC(c2cc(-c3cccs3)n[nH]2)CC1 [4-(3-thiophen-2-yl-1H-pyrazol-5-yl)-1-piperidinecarboxylic acid tert-butyl ester], the IC50 is reported as > 50 µM. With Cc1nc2sccn2c1-c1csc(NCc2ccccc2)n1 [4-(6-methyl-5-imidazo[2,1-b]thiazolyl)-N-(phenylmethyl)-2-thiazolamine] the IC50 was > 50 µM. In the case of O=C(Nc1ccncc1)c1ccc(-c2ccccc2)cc1 [4-phenyl-N-(4-pyridyl)benzamide], the IC50 is reported as > 50 µM. In the case of CCc1cc(C(=O)NC2CCCN(Cc3ccccc3F)C2)n(C)n1 (configuration not stated) [5-ethyl-N-[1-[(2-fluorophenyl)methyl]piperidin-3-yl]-2-methyl-pyrazole-3-carboxamide], the IC50 is reported as > 50 µM. Molecule O=C1NC(=Cc2ccc(O)cc2)C(=O)C1=CNCc1ccccc1 [(3Z,5Z)-3-[(benzylamino)methylidene]-5-[(4-hydroxyphenyl)methylidene]pyrrolidine-2,4-dione] has an IC50 of 7.28 µM. For Cc1nc2ccccc2c2oc(C(=O)N3CCN(C4CCCCC4)CC3)cc12 [(4-cyclohexylpiperazin-1-yl)-(4-methylfuro[3,2-c]quinolin-2-yl)methanone], the IC50 was > 50 µM. In the case of CCCCCCCOc1ccc(OC(=O)c2cccnc2)cc1 [(4-heptoxyphenyl) pyridine-3-carboxylate], the IC50 is reported as > 12.5 µM. In the case of CCCCCCCOc1ccc(OC(=O)c2ccncc2)cc1 [(4-heptoxyphenyl) pyridine-4-carboxylate], the IC50 is reported as > 12.5 µM. In the case of Cc1cc(N=NCc2ccc(O)cc2O)nc(-n2nc(C)cc2C)n1 [(4E)-4-[[2-[2-(3,5-dimethylpyrazol-1-yl)-6-methyl-pyrimidin-4-yl]hydrazinyl]methylidene]-3-oxidanyl-cyclohexa-2,5-dien-1-one], the IC50 is reported as 41.3 µM. CCOc1ccc(-n2c(O)c(CN=Nc3nc(C)cc(C)n3)c3ccccc3c2=O)cc1 [(4Z)-4-[[(4,6-dimethyl-2-pyrimidinyl)hydrazo]methylidene]-2-(4-ethoxyphenyl)isoquinoline-1,3-dione] showed an IC50 of 11.2 µM. With COCCNC(=O)CSCc1nc(-c2ccc(SC)cc2)oc1C [MLS000089367] the IC50 was > 50 µM. CCn1c(=O)cc(SCC(=O)N2CCN(C3CCCCC3)CC2)c2ccccc21 [MLS000092496] was tested, and the IC50 was > 50 µM. For CCCN(CCC)CCNC(=O)c1cc2c(=O)n(C)c3ccccc3c2n1C [MLS000118109], the IC50 was > 50 µM. For O=C(Nc1cc2c3c(c1)C1CCCC1CN3CC1CCCC21)c1ccc([N+](=O)[O-])cc1 (configuration not stated) [MLS000324904], the IC50 was > 12.5 µM. In the case of C[N+]1=C(CC=Nc2ccccc2)C(C)(C)c2ccccc21 [MLS000390698], the IC50 is reported as > 50 µM. For CC1=CC(C)C2(COC(c3ccc[n+](C)c3)OC2)C(C)C1 (configuration not stated) [MLS000717774], the IC50 was > 50 µM. With CC(=O)c1ccc(-[n+]2cc(-c3ccc(C(C)(C)C)cc3)n3c2SCCC3)cc1 [MLS001018012] the IC50 was > 50 µM. COc1ccc(C(=O)C[n+]2cc(-c3ccc(OC)cc3)n3c2CCCC3)cc1 [MLS001018126] was tested, and the IC50 was > 50 µM. For Clc1ccc(-[n+]2cc(-c3ccc(Br)cc3)n3c2CCCCC3)cc1 [MLS001029582], the IC50 was > 50 µM. For CC(NC(=O)c1cc2c(=O)n3ccccc3nc2n(CC2CCCO2)c1=N)c1ccccc1 (configuration not stated) [MLS001217747], the IC50 was > 50 µM. CC(N=Nc1ccc(Cl)nn1)c1ccccc1O (configuration not stated) [MLS001233678] was tested, and the IC50 was > 50 µM. COc1ccc(CN(C)C(=O)c2cccc(NC(=O)Cc3sc(N4CCCCC4)nc3O)c2)c(OC)c1 [MLS002180955] gave an IC50 of 21.7 µM. In the case of COc1cc(C(=O)NC2CCN(C)CC2)ccc1Nc1ncc2c(n1)N(CCc1ccccc1)CCC(=O)N2C [MLS002232307], the IC50 is reported as > 50 µM. For CC(C)(C)[C@H]1COC(=O)[C@H](NC(=O)OCC2c3ccccc3-c3ccccc32)C/C=C\C[C@@H](CC(=O)N(CCO)Cc2ccccc2)C(=O)N1 [MLS002320431], the IC50 was > 12.5 µM. For O=c1c2ccccc2sc2c(CO)ccc(NCCN3CCCCC3)c12 [MLS002702047], the IC50 was > 50 µM. Molecule CCOP(=O)(CCP(=O)(OCC)OCC)OCC [MLS002702923] has an IC50 of 11.8 µM. In the case of CN(C)CCn1c2ccccc2c2nc3ccc([N+](=O)[O-])cc3cc21 [N,N-dimethyl-2-(2-nitro-10-indolo[3,2-b]quinolinyl)ethanamine], the IC50 is reported as > 50 µM. With CC(C)C(=O)N1CCN(c2ccccc2NC(=O)COc2ccccc2)CC1 [N-[2-[4-(2-methyl-1-oxopropyl)-1-piperazinyl]phenyl]-2-phenoxyacetamide] the IC50 was > 50 µM. In the case of O=C(Nc1cc(N2CCCCC2)ncn1)c1ccccc1 [N-[6-(1-piperidinyl)-4-pyrimidinyl]benzamide], the IC50 is reported as > 50 µM. For CCn1c(CC=Nc2ccccc2)[n+](CC)c2cc(Cl)c(Cl)cc21 [N-[(E)-2-[5,6-bis(chloranyl)-1,3-diethyl-benzimidazol-3-ium-2-yl]ethenyl]aniline;iodide], the IC50 was 7.29 µM. With CCC(=O)c1ccc(OCC(O)Cn2c(C)nc3ccccc32)cc1 (configuration not stated) [SMR000075355] the IC50 was > 50 µM. Molecule CCn1c(CC=Nc2ccccc2)[n+](CC)c2ccc(Cl)cc21 [SMR000173759] has an IC50 of 26.3 µM. For C[n+]1c2n(c3ccccc31)N=C(c1ccccc1)CS2 [SMR000176360], the IC50 was > 50 µM. For CCCCCCCNC1=CC(=O)CC(c2ccccc2)C1 (configuration not stated) [SMR000203844], the IC50 was > 50 µM. CCc1ccccc1NC(=S)NN=C1C(=O)N(C)c2ccc(S(=O)(=O)N3CCOCC3)cc21 [SMR000207996] gave an IC50 of 13.3 µM. In the case of CC(=O)c1c(C)[nH]c(C(=O)OCC(=O)Nc2sc3c(c2C#N)CCCC3)c1C [SMR000249195], the IC50 is reported as > 50 µM. With CC(C)(C)C1CCC(OC(=O)C[N+]2(C)CCCCC2)CC1 (configuration not stated) [SMR000306329] the IC50 was > 50 µM. With O=C(Cc1csc(Nc2[nH]c(=S)nc3ccccc23)n1)NCCCN1CCN(c2ccccc2F)CC1 [SMR000310923] the IC50 was > 50 µM. With O=C(Cn1c(-c2ccccc2)c[n+]2ccsc12)c1ccc(Br)cc1 [SMR000354292] the IC50 was > 50 µM. Clc1ccc(-c2c[n+](Cc3ccc(Cl)cc3Cl)c3n2CCCCC3)cc1 [SMR000420192] was tested, and the IC50 was > 12.5 µM. With COc1ccc(Nc2nc(N3CCOCC3)nc(N3CCOCC3)n2)c(OC)c1 [SMR000515822] the IC50 was > 50 µM. COc1cc2c(c(OC)c1OC)-c1ccc(N(C)CC(OC)OC)c(=O)cc1[C@@H](NC(C)=O)CC2 [SMR000540275] was tested, and the IC50 was > 50 µM. CCOc1ccc(-c2nc(CSCC(=O)NC3CC3)c(C)o2)cc1 [SMR000635235] was tested, and the IC50 was > 50 µM. In the case of CCOc1ccc(-c2nc(CSCC(=O)NCC3CCCO3)c(C)o2)cc1 (configuration not stated) [SMR000635237], the IC50 is reported as > 50 µM. Cc1ccc(C)c(-c2csc(NC(=O)C3=COCCO3)n2)c1 [SMR000713303] was tested, and the IC50 was > 50 µM. In the case of CCCc1nc(SCC(=O)Nc2nnc(CC)s2)c2c(=O)n(C)c(=O)n(C)c2n1 [SMR000806028], the IC50 is reported as > 50 µM. With Brc1ccc(-[n+]2c(-c3ccccc3)cc(-c3ccccc3)cc2-c2ccccc2)cc1 [SMR000841262] the IC50 was 15.6 µM. In the case of COc1cc(C(=O)NC2CCN(C)CC2)ccc1Nc1ncc2c(n1)N(C1CCCCC1)CCC(=O)N2C [SMR001307858], the IC50 is reported as > 50 µM. In the case of O=C(CCCCCCC(=O)Nc1ccccc1)NO [Zolinza], the IC50 is reported as > 50 µM. In the case of O=C(COC(=O)c1ccc2[nH]c3c(c2c1)CCCC3)Nc1ccccc1Cl [[2-[(2-chlorophenyl)amino]-2-oxidanylidene-ethyl] 6,7,8,9-tetrahydro-5H-carbazole-3-carboxylate], the IC50 is reported as > 50 µM. In the case of CCOc1ccc2[nH]c3c(N4CCN(C(=O)c5ccco5)CC4)ncnc3c2c1 [[4-(8-ethoxy-5H-pyrimido[5,4-b]indol-4-yl)-1-piperazinyl]-(2-furanyl)methanone], the IC50 is reported as > 50 µM. With Cc1ccc(S(=O)(=O)N2CCN(C(=O)c3ccc(S(=O)(=O)N4CCCC4)cc3)CC2)cc1 [[4-(Pyrrolidine-1-sulfonyl)-phenyl]-[4-(toluene-4-sulfonyl)-piperazin-1-yl]-methanone] the IC50 was > 50 µM.
